From article PMC6774887 (Molecular cancer therapeutics, 2019) come the findings set out here.

In series [1] the target is T1, AICARFTase (ATIC) (Homo sapiens, UniProt P31939). The experiment in a line: spectrophotometric THF formation. Format: biochemical.
Another series deals with T2, MTHFD2 (Homo sapiens, UniProt P13995).
T2 sequence (P13995 36-333): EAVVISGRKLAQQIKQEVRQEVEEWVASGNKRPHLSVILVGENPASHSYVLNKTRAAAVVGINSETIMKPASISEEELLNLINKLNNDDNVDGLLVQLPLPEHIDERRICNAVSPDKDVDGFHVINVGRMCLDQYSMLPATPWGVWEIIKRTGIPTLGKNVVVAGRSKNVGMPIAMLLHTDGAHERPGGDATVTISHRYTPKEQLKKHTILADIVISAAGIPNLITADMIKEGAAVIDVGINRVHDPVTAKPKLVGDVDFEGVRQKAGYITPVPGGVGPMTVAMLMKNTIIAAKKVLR
The series can be described thus: NAD. Format: biochemical.

For series [2], the target named is T1, AICARFTase (ATIC). The experiment in a line: spectrophotometric THF formation from 10-formyl-THF. As to conditions: Ki = IC50/([S]/KM+[…]); KM of […]-formyl-THF […]. The class given is biochemical.
The target of series [3] is T3, SHMT2 (Homo sapiens, UniProt P34897).
T3 sequence (P34897 42-504): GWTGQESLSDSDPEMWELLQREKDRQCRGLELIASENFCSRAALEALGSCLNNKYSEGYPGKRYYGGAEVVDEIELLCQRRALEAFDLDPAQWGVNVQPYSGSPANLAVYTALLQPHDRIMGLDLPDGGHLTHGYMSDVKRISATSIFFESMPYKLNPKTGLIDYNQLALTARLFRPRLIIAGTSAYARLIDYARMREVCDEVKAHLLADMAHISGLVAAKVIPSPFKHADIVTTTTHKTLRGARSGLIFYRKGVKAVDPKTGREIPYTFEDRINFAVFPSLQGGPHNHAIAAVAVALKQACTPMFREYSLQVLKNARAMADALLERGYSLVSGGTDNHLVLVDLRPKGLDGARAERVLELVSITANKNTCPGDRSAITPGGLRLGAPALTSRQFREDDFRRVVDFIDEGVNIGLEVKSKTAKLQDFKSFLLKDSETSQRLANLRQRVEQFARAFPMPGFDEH
The series can be described thus: coupled SHMT/MTHFD2 assay, NADH fluorescence. Format: biochemical. As to conditions: Ki = IC50/([S]/KM+[…]); KM of THF […]; His-MTHFD2 in […] molar excess.

In series [4] the target is T4, SHMT1 (Homo sapiens, UniProt P34896).
T4 sequence (P34896 7-478): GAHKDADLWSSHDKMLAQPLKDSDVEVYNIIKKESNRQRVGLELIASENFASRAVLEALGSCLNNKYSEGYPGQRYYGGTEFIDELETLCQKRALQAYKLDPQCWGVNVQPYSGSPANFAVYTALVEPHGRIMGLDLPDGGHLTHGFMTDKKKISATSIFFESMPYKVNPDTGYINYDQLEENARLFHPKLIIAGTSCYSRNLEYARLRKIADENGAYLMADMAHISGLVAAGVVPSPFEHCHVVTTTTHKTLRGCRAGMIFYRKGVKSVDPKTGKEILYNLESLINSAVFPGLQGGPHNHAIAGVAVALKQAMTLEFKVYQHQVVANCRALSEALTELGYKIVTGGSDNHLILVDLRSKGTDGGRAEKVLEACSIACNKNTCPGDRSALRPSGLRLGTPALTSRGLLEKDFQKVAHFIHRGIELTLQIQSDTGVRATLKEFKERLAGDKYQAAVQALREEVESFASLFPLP
The experiment in a line: coupled SHMT/MTHFD2 assay, NADH fluorescence. Format: biochemical. As to conditions: Ki = IC50/([S]/KM+[…]); KM of THF […]; His-MTHFD2 in […] molar excess.

The target in series [5] is T3, SHMT2. The experiment in a line: coupled SHMT/MTHFD2 assay, NADH fluorescence. The class given is biochemical. As to conditions: His-MTHFD2 in […] molar excess.
The target of series [6] is T4, SHMT1. The experiment in a line: coupled SHMT/MTHFD2 assay, NADH fluorescence. The class given is biochemical. The settings on record: His-MTHFD2 in […] molar excess.
Substrate in series [7]: Nc1nc2c(c(=O)[nH]1)N[C@@H](CN(C=O)c1ccc(C(=O)N[C@@H](CCC(=O)O)C(=O)O)cc1)CN2
The experiment in a line: spectrophotometric THF formation. The class given is biochemical, Homo sapiens.

T1 sequence (P31939 whole entry): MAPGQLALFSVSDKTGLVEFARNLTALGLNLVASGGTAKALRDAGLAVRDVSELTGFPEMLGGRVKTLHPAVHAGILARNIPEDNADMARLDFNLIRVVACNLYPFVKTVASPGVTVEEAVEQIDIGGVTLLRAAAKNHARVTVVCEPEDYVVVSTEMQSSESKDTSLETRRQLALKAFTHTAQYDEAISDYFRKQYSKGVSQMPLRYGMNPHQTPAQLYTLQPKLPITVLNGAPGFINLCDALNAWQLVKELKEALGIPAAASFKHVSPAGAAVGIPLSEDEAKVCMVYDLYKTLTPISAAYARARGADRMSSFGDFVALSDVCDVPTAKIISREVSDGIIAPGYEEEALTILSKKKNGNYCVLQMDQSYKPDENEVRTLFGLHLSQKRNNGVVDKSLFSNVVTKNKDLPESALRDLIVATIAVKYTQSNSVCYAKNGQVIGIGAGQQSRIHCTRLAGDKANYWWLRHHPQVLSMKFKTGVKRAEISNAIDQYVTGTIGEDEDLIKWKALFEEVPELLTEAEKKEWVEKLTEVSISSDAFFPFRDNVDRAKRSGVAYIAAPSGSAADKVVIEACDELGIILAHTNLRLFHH

`Nc1nc2c(c(=O)[nH]1)N[C@@H](CN(C=O)c1ccc(C(=O)N[C@@H](CCC(=O)O)C(=O)O)cc1)CN2` [10-formyl-THF]: the Michaelis constant (Km) on AICARFTase (ATIC) [1] was 100 µM.
With `Nc1nc2[nH]c(CCCc3ccc(C(=O)N[C@@H](CCC(=O)O)C(=O)O)s3)cc2c(=O)[nH]1` [AGF94], the “NI (no inhibition up to 200 μM inhibitor; Ki column)” value on MTHFD2 and at AICARFTase (ATIC) [2] was greater than 200 µM throughout.
For the molecule `Nc1nc(=O)c2c(CCc3ccc(C(=O)N[C@@H](CCC(=O)O)C(=O)O)cc3)c[nH]c2[nH]1` [PMX], the “NI (no inhibition up to 200 μM inhibitor; Ki column)” value on MTHFD2, on SHMT2 [3] and on SHMT1 [4] was greater than 200 µM throughout.
Regarding `Nc1nc2c(c(=O)[nH]1)N[C@@H](CNc1ccc(C(=O)N[C@@H](CCC(=O)O)C(=O)O)cc1)CN2` [THF], the Michaelis constant (Km) at SHMT2 [5] was determined as 108 µM; on SHMT1 [6] it was 62.8 µM.
Regarding AGF320, on MTHFD2, the “NI (no inhibition up to 200 μM inhibitor; Ki column)” value was greater than 200 µM.

B1: GARFTase (Homo sapiens) (protein)
chain: ARVAVLISGTGSNLQALIDSTREPNSSAQIDIVISNKAAVAGLDKAERAGIPTRVINHKLYKNRVEFDSAIDLVLEEFSIDIVCLAGFMRILSGPFVQKWNGKMLNIHPSLLPSFKGSNAHEQALETGVTVTGCTVHFVAEDVDAGQIILQEAVPVKRGDTVATLSERVKLAEHKIFPAALQLVASGTVQLGENGKICWVKEE
As for B1, the Km in series [7] came to 84.8 µM.

The Km is the concentration of substrate that gives half-maximal velocity.
